# Source: US9718770B2, “Substituted thioureas as heat shock protein 70 inhibitors” (Institute of Pharmacology and Toxicology Academy of …, priority 2013, dated 2017)
# Legend:
# SK-BR3 = test: CDI of example compounds and Lapatinib (ATPlite cell survival); type: cell-based; design: key: CDI = AB/(A×B); <1 synergistic; conditions: compound 5 μM + Lapatinib 1 μM, 72 h; Lapatinib-sensitive human breast cancer cells; CDI<1 synergistic
# Description: (§1) Cells: (BT474 and SK-BR3 are Lapatinib-sensitive human breast cancer cell strains; BT/LapR and SK/LapR are secondary Lapatinib-resistant human breast cancer cell strains upon Lapatinib stimulation; MDA-MB-361 and MDA-MB-453 are natural Lapatinib-resistant human breast cancer cell strains. BT474, MDA-MB-361, SK-BR3 and MDA-MB-453 are from American Type Culture Collection (ATCC))
# (§2) In a 100 mm culture dish full of adherent cells, digestion with 1 ml 0.25% pancreatin (GIBCO) was carried out at 37° C. for 5 min, and the reaction was stopped with 2 ml medium (containing 10% FBS, GIBCO). The cells were dispersed and collected. After cell count, the cells were diluted to a concentration of 1×10^5 cells/ml, and were seeded to a 96-well plate at 50 μl/well, 5000 cell/well, 60 wells in total, PBS instead of cells was added to the wells of the outmost circle, and the incubation was carried out at 37° C. for 24 h for adherence.
# (§3) For the sample group, samples to be tested were diluted with DMSO to a final concentration of 5 μM; to control wells, the medium containing the same concentration of solvent corresponding to the compound was added, the concentrations of the compounds were identical in each well, 5 wells in parallel were set for each concentration, 25 μL/well, and 25 μL medium was added to each well (for the combination group, 25 μL Lapatinib was added to reach a final concentration of 1 μM). The incubation was carried out at 37° C. for 72 h.
# (§4) To each well, 50 μL ATPlite kit substrate solution was added. The plate was under shaking for 3 min, and was then placed in dark for 10 min. The lysis supernatant was drawn at 100 μL/well, and placed in a luminescent plate. The incubated luminescent plate was placed in an iluminescence apparatus, and the iluminescent value was read.
# (§5) Data Processing Cell survival rate (%)=Experimental group RLU/control group RLU×100%
# (§6) Coefficient of drug interaction (CDI) is used to evaluate the interaction of two drugs, CDI is calculated in accordance with the following formula: CDI=AB/(A×B)×100%. The calculation is performed according to the number of live cells (luminescent value), if CDI<1, the two drugs have a synergistic effect; if CDI<0.7, the synergistic effect is very significant; if CDI=1, the effect of the two drugs in combination is the sum of the effects of the two drugs; if CDI>1, the two drugs have an antagonistic effect.
# BT474 = test: as above; type: cell-based; design: key: CDI = AB/(A×B); <1 synergistic; conditions: compound 5 μM + Lapatinib 1 μM, 72 h; Lapatinib-sensitive human breast cancer cells; CDI<1 synergistic, <0.7 very significant, >1 antagonistic
# Description: as §1, §2, §3, §4, §5, §6
# MDA-MB-361 = test: as above; type: cell-based; design: key: CDI = AB/(A×B); <1 synergistic; conditions: compound 5 μM + Lapatinib 1 μM, 72 h; natural Lapatinib-resistant human breast cancer cells; CDI<1 synergistic
# Description: as §1, §2, §3, §4, §5, §6
# MDA-MB-453 = test: as above; type: cell-based; design: key: CDI = AB/(A×B); <1 synergistic; conditions: compound 5 μM + Lapatinib 1 μM, 72 h; natural Lapatinib-resistant human breast cancer cells; CDI<1 synergistic
# Description: as §1, §2, §3, §4, §5, §6
# Hsp70 ATPase = biological target: T1, Hsp70 ATPase (Homo sapiens, UniProt P0DMV8); test: Inhibition of Hsp70 ATPase activity (malachite green); type: biochemical; conditions: 200 μM; repeated screening carried out twice; Hsp70/Hsp40, 1 mM ATP; read-out: Inhibitory rate (%) on activity of Hsp70 ATPase
# T1 construct: made in house; host or cells: E. coli
# T1 sequence (P0DMV8 2-641 limits assumed): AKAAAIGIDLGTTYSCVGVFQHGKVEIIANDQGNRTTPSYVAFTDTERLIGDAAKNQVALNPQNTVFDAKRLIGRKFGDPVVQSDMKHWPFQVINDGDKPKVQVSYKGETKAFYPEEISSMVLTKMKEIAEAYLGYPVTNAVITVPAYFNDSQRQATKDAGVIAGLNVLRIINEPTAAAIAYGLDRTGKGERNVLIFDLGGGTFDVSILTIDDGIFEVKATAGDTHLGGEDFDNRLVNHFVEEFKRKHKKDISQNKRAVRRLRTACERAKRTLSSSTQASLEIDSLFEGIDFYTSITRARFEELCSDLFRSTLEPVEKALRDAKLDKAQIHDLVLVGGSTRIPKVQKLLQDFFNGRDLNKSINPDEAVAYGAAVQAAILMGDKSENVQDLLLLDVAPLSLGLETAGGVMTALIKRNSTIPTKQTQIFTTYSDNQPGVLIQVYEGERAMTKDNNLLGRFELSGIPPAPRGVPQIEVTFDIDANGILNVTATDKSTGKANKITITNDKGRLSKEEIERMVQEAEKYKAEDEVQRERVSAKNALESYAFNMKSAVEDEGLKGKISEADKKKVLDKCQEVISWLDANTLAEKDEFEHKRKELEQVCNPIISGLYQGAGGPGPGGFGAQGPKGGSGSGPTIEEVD
# Description: (1) Protein: Humanized Hsp70, Hsp40, expressed by E. coli.
# (2) Sample to be tested: 26 compound solids with different colors and states. Positive drugs AZ (CAS:1054543-47-3) and VER 155008 (CAS: 1134156-31-2) were synthesized in the laboratory.
# (4) ATPase Assay buffer: • 0.017% Triton X-100; • 100 mM Tris-HCl; • 20 mM KCl; • 6 mM MgCl2, pH 7.4.
# 1) 13.08 μl DnaK (0.15 mg/mL, 2.14 μM), 1.96 μl DnaJ (1 mg/mL, 25 μM) were dissolved in 7.96 μl Assay Buffer (0.017% Triton X-100, 100 mM Tris-HCl, 20 mM KCl, and 6 mM MgCl2, pH 7.4), and the resultant solution was added to each well of the 96 well plate;
# 2) to each well of the 96 well plate, 1 μL sample to be tested (5 mM) or DMSO (solvent) was added, and vortexed with a Vortex agitator for 10 min; and then standing at 37° C. for 30 min;
# 3) to each well, 1 μL 25 mM ATP was added, to trigger the enzymatic reaction; (in each well, the final reaction volume was 25 μL, the final concentration of DnaK was 1.12 μM, the final concentration of DnaJ was 1.96 μM, the final concentration of DMSO was 4%, the final concentration of Triton X-100 was 0.01%, the final concentration of ATP was 1 mM, and the final concentration of sample to be tested was 200 μM), the enzymatic reaction was carried out at 37° C. for 3 h;
# 4) 80 μL Malachite green staining solution was then added to each well, and was vortexed gently;
# 5) 10 μL of 34% citrate sodium was then added immediately, and vortexed gently, to stop the ATP hydrolysis not caused by ATPase;
# 6) the resultant mixture was mixed thoroughly at 37° C. for 15 min, and OD620 was measured.
# The inhibitory rate of Hsp70 ATPase activity is calculated in accordance with the following formula: Inhibitory rate (%)=(DMSO well OD−Experimental well OD)/(DMSO well OD−Blank well OD)×100
# Criteria for preliminary screening: during preliminary screening, an example compound is regarded as effective in inhibition as long as its inhibitory rate is above 20% for Hsp70 ATPase at 200 μM.
# BT/Lap^R1.0 = test: CDI of example compounds and Lapatinib (ATPlite cell survival); type: cell-based; conditions: compound 5 μM + Lapatinib 1 μM, 72 h; secondary Lapatinib-resistant human breast cancer cells; CDI<1 synergistic
# Description: as §1, §2, §3, §4, §5, §6
# SK/Lap^R1.0 = test: as above; type: cell-based; conditions: compound 5 μM + Lapatinib 1 μM, 72 h; secondary Lapatinib-resistant human breast cancer cells; CDI<1 synergistic
# Description: as §1, §2, §3, §4, §5, §6
inhibition at 200 µM (Hsp70 ATPase),SMILES,"CDI of example compounds and Lapatinib, SK-BR3 (SK-BR3)","CDI of example compounds and Lapatinib, BT474 (BT474)","CDI of example compounds and Lapatinib, MDA-MB-361 (MDA-MB-361)","CDI of example compounds and Lapatinib, MDA-MB-453 (MDA-MB-453)","CDI of example compounds and Lapatinib, BT/Lap^R1.0 (BT/Lap^R1.0)","CDI of example compounds and Lapatinib, SK/Lap^R1.0 (SK/Lap^R1.0)"
41%,"Cc1ccccc1NC(=S)NC(CC(C)(C)C)NC(=O)/C=C/c1ccccc1 (stereo not shown) [Example 46, N-[3,3-dimethyl-1-(3-o-methylphenylthioureido)butyl] cinnamamide]",1.29,0.74,0.94,1.64,0.79,1.25
61.3%,"Cc1ccccc1NC(=S)NC(CC(C)C)NC(=O)/C=C/c1ccccc1 (stereo not shown) [Example 47, N-[3-methyl-1-(3-o-methylphenylthioureido)butyl] cinnamamide]",1.15,0.84,1.05,1.39,0.97,0.98
-0.88%,"Cc1ccccc1NC(=S)NC(NC(=O)/C=C/c1ccccc1)C(C)(C)C (stereo not shown) [Example 48, N-[2,2-dimethyl-1-(3-o-methylphenylthioureido)propyl] cinnamamide]",1.15,0.92,1.15,1.2,0.96,0.99
65.4%,"Cc1ccccc1NC(=S)NC(NC(=O)/C=C/c1ccccc1)C1CC1 (stereo not shown) [Example 49, N-[cyclopropyl-(3-o-methylphenylthioureido)-methyl] cinnamamide]",1.08,0.9,0.95,1.2,0.96,0.99
28.8%,"COc1ccc(NC(=S)NC(NC(=O)/C=C/c2cc(OC)c(OC)c(OC)c2)C(C)C)cc1 (stereo not shown) [Example 50, (2E)-N-{1-[3-(4-methoxyphenyl)thioureido]-2-methylpropyl}-3-(3,4,5-trimethoxyphenyl) acrylamide]",1.06,1.02,0.97,1.4,1.02,0.96
46.2%,"COc1cc(/C=C/C(=O)NC(CC(C)C)NC(=S)NC2CCCCC2)cc(OC)c1OC (stereo not shown) [Example 51, (2E)-N-[1-(3-cyclohexylthioureido)-3-methylbutyl]-3-(3,4,5-trimethoxyphenyl) acrylamide]",0.96,0.73,1.09,1.27,0.94,1.38
35.8%,"COc1cc(/C=C/C(=O)NC(NC(=S)NC2CCCCC2)C(C)(C)C)cc(OC)c1OC (stereo not shown) [Example 52, (2E)-N-[1-(3-cyclohexylthioureido)-2,2-dimethylpropyl]-3-(3,4,5-trimethoxyphenyl) acrylamide]",0.88,0.56,0.92,1.18,0.86,1.11
